Assay results taken from US4048299A, “Anticaries confectionaries and oral health products” (William Wrigley, Jr. Co., priority 1970, dated 1977).

Experiments:
[1] = tested on: Lactobacillus casei ATCC 4646; assay: Acid production inhibition by aldehydes in product vehicles, broth-tube technique; type: cell-based; conditions: 1 to 5 percent aldehyde
[2] = tested on: Streptococcus spp. KI-R; assay: as above; type: cell-based; conditions: 1 to 5 percent aldehyde
[3] = tested on: Lactobacillus casei ATCC 4646; assay: Growth inhibition by aldehydes in product vehicles, pour-plate technique; type: cell-based; conditions: 1 to 5 percent aldehyde
In short: (§1)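 Aldehydes (1 to 5 percent by weight) were formulated into syrups, candies, mouthwash, toothpaste or toothpowder, added directly or as aqueous extracts to medium without a carbon source mixed 1:1 with filter-sterilized human saliva. Sugar came from the product or added sucrose. Growth over up to 24 hours was read by pour-plate count.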

[4] = tested on: Mixed human oral microorganisms; assay: as above; type: cell-based; conditions: 1 to 5 percent aldehyde
In short: as §1

[5] = tested on: Streptococcus spp. KI-R; assay: as above; type: cell-based; conditions: 1 to 5 percent aldehyde
In short: as §1

[6] = tested on: oral microorganisms; assay: Acid production inhibition in vitro (summary); type: cell-based; conditions: in words, summary of tables
Method: Other in vitro evaluations utilized a broth tube analysis of representative anticaries aldehydes incorporated in the vehicles of this invention against cultures of acid producing microorganisms normally present in the mouth. Standard laboratory procedures were utilized throughout to evaluate the acid production inhibition and growth inhibition over the incubation time of up to 24 hours.

[7] = tested on: Lactobacillus casei; assay: Acid production inhibition, broth-tube technique; conditions: single agent
Text: The data was compiled through well-known broth tube analysis techniques.
(a)Measured by broth-tube technique.

[8] = in compressed candy tablet, 2 h incubation
[9] = in compressed candy tablet, 5 h incubation
[10] = in compressed candy tablet, 24 h incubation
[11] = in dextrose syrup, 2 h incubation
[12] = in dextrose syrup, 5 h incubation
[13] = in dextrose syrup, 24 h incubation
[14] = in sucrose syrup, 2 h incubation
[15] = in sucrose syrup, 5 h incubation
[16] = in sucrose syrup, 24 h incubation
[17] = in tooth powder (aqueous extract), 2 h incubation
[18] = in tooth powder (aqueous extract), 5 h incubation
[19] = in tooth powder (aqueous extract), 24 h incubation
[20] = in toothpaste (aqueous extract), 2 h incubation
[21] = in toothpaste (aqueous extract), 5 h incubation
[22] = in toothpaste (aqueous extract), 24 h incubation

CC(=O)C=O [Pyruvaldehyde]
Acid Production Inhibition [1, 8]: 0 Per Cent
Acid Production Inhibition [1, 9]: 0 Per Cent
Acid Production Inhibition [1, 10]: 75 Per Cent
Acid Production Inhibition [1, 11]: 52 Per Cent
Acid Production Inhibition [1, 12]: 33 Per Cent
Acid Production Inhibition [1, 13]: 88 Per Cent
Acid Production Inhibition ([1]; in hard candy, 2 h incubation): 0 Per Cent
Acid Production Inhibition ([1]; in hard candy, 5 h incubation): 22 Per Cent
Acid Production Inhibition ([1]; in hard candy, 24 h incubation): 90 Per Cent
Acid Production Inhibition [1, 14]: 0 Per cent
Acid Production Inhibition [1, 15]: 20.0 Per cent
Acid Production Inhibition [1, 16]: 89.6 Per cent
Acid Production Inhibition [1, 17]: 0 Per cent
Acid Production Inhibition [1, 18]: 0 Per cent
Acid Production Inhibition [1, 19]: 71 Per cent
Acid Production Inhibition [1, 20]: 0 Per cent
Acid Production Inhibition [1, 21]: 0 Per cent
Acid Production Inhibition [1, 22]: 0 Per cent
Acid Production Inhibition [2, 8]: 0 Per Cent
Acid Production Inhibition [2, 9]: 30 Per Cent
Acid Production Inhibition [2, 10]: 83 Per Cent
Acid Production Inhibition [2, 11]: 57 Per Cent
Acid Production Inhibition [2, 12]: 86 Per Cent
Acid Production Inhibition [2, 13]: 82 Per Cent
Acid Production Inhibition ([2]; in hard candy, 2 h incubation): 40 Per Cent
Acid Production Inhibition ([2]; in hard candy, 5 h incubation): 87 Per Cent
Acid Production Inhibition ([2]; in hard candy, 24 h incubation): 86 Per Cent
Acid Production Inhibition ([2]; in mouthwash, 2 h incubation): 0 Per cent
Acid Production Inhibition ([2]; in mouthwash, 5 h incubation): 0 Per cent
Acid Production Inhibition ([2]; in mouthwash, 24 h incubation): 86 Per cent
Acid Production Inhibition [2, 14]: 37.5 Per cent
Acid Production Inhibition [2, 15]: 82.3 Per cent
Acid Production Inhibition [2, 16]: 86.4 Per cent
Acid Production Inhibition [2, 17]: 0 Per cent
Acid Production Inhibition [2, 18]: 0 Per cent
Acid Production Inhibition [2, 19]: 0 Per cent
Acid Production Inhibition [2, 20]: 0 Per cent
Acid Production Inhibition [2, 21]: 0 Per cent
Acid Production Inhibition [2, 22]: 0 Per cent
Growth Inhibition [3, 8]: 99.5 Per Cent
Growth Inhibition [3, 9]: 100 Per Cent
Growth Inhibition [3, 10]: 100 Per Cent
Growth Inhibition [3, 11]: 99.4 Per Cent
Growth Inhibition [3, 12]: 99.99 Per Cent
Growth Inhibition [3, 13]: 100 Per Cent
Growth Inhibition ([3]; in hard candy, 2 h incubation): 92 Per Cent
Growth Inhibition ([3]; in hard candy, 5 h incubation): 99.85 Per Cent
Growth Inhibition ([3]; in hard candy, 24 h incubation): 100 Per Cent
Growth Inhibition [3, 14]: 97.5 Per cent
Growth Inhibition [3, 15]: > 99.99 Per cent
Growth Inhibition [3, 16]: > 99.99 Per cent
Growth Inhibition [3, 17]: N.S.
Growth Inhibition [3, 18]: 98 Per cent
Growth Inhibition [3, 19]: 100 Per cent
Growth Inhibition [3, 20]: N.S.
Growth Inhibition [3, 21]: N.S.
Growth Inhibition [3, 22]: 100 Per cent
Growth Inhibition [4, 8]: 99.7 Per Cent
Growth Inhibition [4, 9]: 99.99 Per Cent
Growth Inhibition [4, 10]: 99.98 Per Cent
Growth Inhibition [4, 11]: 99.8 Per Cent
Growth Inhibition [4, 12]: 100 Per Cent
Growth Inhibition [4, 13]: 99.99 Per Cent
Growth Inhibition ([4]; in hard candy, 2 h incubation): 99.5 Per Cent
Growth Inhibition ([4]; in hard candy, 5 h incubation): 100 Per Cent
Growth Inhibition ([4]; in hard candy, 24 h incubation): N.S.
Growth Inhibition ([4]; in mouthwash, 2 h incubation): 99.0 Per cent
Growth Inhibition ([4]; in mouthwash, 5 h incubation): 100 Per cent
Growth Inhibition ([4]; in mouthwash, 24 h incubation): 99.7 Per cent
Growth Inhibition [4, 14]: > 99.9 Per cent
Growth Inhibition [4, 15]: > 99.99 Per cent
Growth Inhibition [4, 16]: N.S.
Growth Inhibition [4, 17]: N.S.
Growth Inhibition [4, 18]: 99.99 Per cent
Growth Inhibition [4, 19]: 99.94 Per cent
Growth Inhibition [4, 20]: 100 Per cent
Growth Inhibition [4, 21]: N.S.
Growth Inhibition [4, 22]: 100 Per cent
Growth Inhibition [5, 8]: N.S.
Growth Inhibition [5, 9]: N.S.
Growth Inhibition [5, 10]: N.S.
Growth Inhibition [5, 11]: 100 Per Cent
Growth Inhibition [5, 12]: 100 Per Cent
Growth Inhibition [5, 13]: 100 Per Cent
Growth Inhibition ([5]; in hard candy, 2 h incubation): > 99.99 Per Cent
Growth Inhibition ([5]; in hard candy, 5 h incubation): > 99.99 Per Cent
Growth Inhibition ([5]; in hard candy, 24 h incubation): 100 Per Cent
Growth Inhibition ([5]; in mouthwash, 2 h incubation): > 99.99 Per cent
Growth Inhibition ([5]; in mouthwash, 5 h incubation): > 99.99 Per cent
Growth Inhibition ([5]; in mouthwash, 24 h incubation): 100 Per cent
Growth Inhibition [5, 14]: > 99.9 Per cent
Growth Inhibition [5, 15]: > 99.99 Per cent
Growth Inhibition [5, 16]: 100 Per cent
Growth Inhibition [5, 17]: 100 Per cent
Growth Inhibition [5, 18]: 100 Per cent
Growth Inhibition [5, 19]: 100 Per cent
Growth Inhibition [5, 20]: N.S.
Growth Inhibition [5, 21]: N.S.
Growth Inhibition [5, 22]: N.S.
Acid Production Inhibition [6]: excellent acid production inhibition
Acid Production Inhibition ([7]; 0.005 percent): 24%
Acid Production Inhibition ([7]; 0.0075 percent): 57%
